Earlier results on one compound are cited in US6838238B1, “Morphatides: novel shape and structure libraries” (Invitrogen Corporation, priority 1996, dated 2005).

The conditions of this data set: ionizes by hydration to yield the tetrahedral phenylboronate anion.

SMILES strings stand for the structures.

A word on the pKa: it is the negative logarithm of the acid dissociation constant. Consider `OB(O)c1ccccc1` [Phenylboronic acid], for which the pKa is recorded as 8.86.
